# From publication PMC11649914, “Transport mechanism of DgoT, a bacterial homolog of SLC17 organic anion transporters” (The EMBO Journal, 2024)
# Assays:
# Experiment in all cases: SSM electrophysiology, kobs of pre-steady state current vs concentration
# Format in all cases: biochemical
# DgoT [1] = molecular target: T1, DgoT (Escherichia coli, UniProt A0A0H2Z574, D46N)
# T1 sequence (A0A0H2Z574 1-445 D46N): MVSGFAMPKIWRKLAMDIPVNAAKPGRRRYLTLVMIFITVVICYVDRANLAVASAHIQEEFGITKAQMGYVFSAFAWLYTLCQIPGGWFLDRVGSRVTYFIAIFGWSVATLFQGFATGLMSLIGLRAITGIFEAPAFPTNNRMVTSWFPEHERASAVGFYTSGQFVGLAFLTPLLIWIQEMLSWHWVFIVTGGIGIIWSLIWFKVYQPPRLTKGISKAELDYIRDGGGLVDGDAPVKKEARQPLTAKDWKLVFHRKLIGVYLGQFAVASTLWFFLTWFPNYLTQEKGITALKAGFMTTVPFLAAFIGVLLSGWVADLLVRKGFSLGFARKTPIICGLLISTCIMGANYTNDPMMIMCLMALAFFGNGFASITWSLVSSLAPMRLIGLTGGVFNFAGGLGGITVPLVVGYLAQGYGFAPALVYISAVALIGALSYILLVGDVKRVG
# Text: (§1) SSM electrophysiology, kobs of pre-steady state current vs concentration on DgoT
# DgoT [2] = molecular target: T2, DgoT (Escherichia coli, UniProt A0A0H2Z574, E133Q)
# T2 sequence (A0A0H2Z574 1-445 E133Q): T1 sequence (A0A0H2Z574 1-445 D46N)
# Text: as §1
# DgoT [3] = molecular target: T3, DgoT (Escherichia coli, UniProt A0A0H2Z574)
# T3 sequence (A0A0H2Z574 1-445): T1 sequence (A0A0H2Z574 1-445 D46N)
# Text: as §1
# DgoT [4] = molecular target: T4, DgoT (Escherichia coli, UniProt A0A0H2Z574, R126Q)
# T4 sequence (A0A0H2Z574 1-445 R126Q): T1 sequence (A0A0H2Z574 1-445 D46N)
# Text: as §1
structure (smiles),measurement,setting,value
O=C(O)[C@H](O)[C@@H](O)[C@@H](O)[C@H](O)CO [D-galactonate],Kd,DgoT [1],10.9 mM
same,Kd,DgoT [2],15.3 mM
same,Kd,DgoT [3],15.1 mM
same,Kd,DgoT [4],22 mM
